Test results: ChEMBL document CHEMBL1201862, “PubChem BioAssay data set” (2004)
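Briefly, cells in 96-well plates were exposed to five compound concentrations for 48 h, and endpoints were estimated by linear interpolation. Abbreviation: GI50, concentration required for 50% inhibition of growth.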 Calls of active or inactive are those of the source. Cut-off read from the data, not from the text of the source: active = GI50 up to about 1.1 µM and inactive = higher.

Key:
Assay in all cases: inhibition of tumour cell growth, NCI panel, 48 h
ACHN = system: ACHN
K562 = system: K562
Malme-3M = system: Malme-3M
RPMI-8226 = system: RPMI-8226
SF-268 = system: SF-268
EKVX = system: EKVX
OVCAR-4 = system: OVCAR-4
SK-MEL-5 = system: SK-MEL-5
UACC-257 = system: UACC-257
SR = system: SR
786-0 = system: 786-0
HL-60 = system: HL-60
TK-10 = system: TK-10
U-251 = system: U-251
HT-29 = system: HT-29
LOX IMVI = system: LOX IMVI
HOP-92 = system: HOP-92

Measured: GI50

O=C1CCCCC12CCC/C2=N\O (stereo not drawn)
inactive: ACHN > 100 µM | K562 > 100 µM | Malme-3M > 100 µM | RPMI-8226 > 100 µM | SF-268 > 100 µM | EKVX > 100 µM | OVCAR-4 > 100 µM | SK-MEL-5 > 100 µM | UACC-257 > 100 µM | SR > 100 µM | 786-0 > 100 µM | HL-60 > 100 µM | TK-10 > 100 µM | U-251 > 100 µM

Cc1cc(C)nc(NS(=O)(=O)c2ccc(Nc3c4ccccc4nc4c(C(=O)Nc5ccc(S(=O)(=O)Nc6cc(C)on6)cc5)ccc(Cl)c34)cc2)n1
inactive: ACHN 36.2 µM | K562 27.8 µM | Malme-3M 28.1 µM | RPMI-8226 20.6 µM | SF-268 27.2 µM | EKVX 25.5 µM | OVCAR-4 28.6 µM | HT-29 23.4 µM | UACC-257 28.9 µM | SR 21.1 µM | LOX IMVI 22.2 µM | 786-0 17.9 µM | TK-10 76 µM | U-251 15.9 µM

NC(CCCNCc1ccccc1)C(=O)O (stereo not drawn)
inactive: HOP-92 > 100 µM | ACHN > 100 µM | K562 > 100 µM | Malme-3M > 100 µM | RPMI-8226 > 100 µM | SF-268 > 100 µM | EKVX > 100 µM | OVCAR-4 > 100 µM | SK-MEL-5 > 100 µM | HT-29 > 100 µM | UACC-257 > 100 µM | LOX IMVI > 100 µM | 786-0 > 100 µM | HL-60 > 100 µM | TK-10 > 100 µM

CCc1ccc(Cc2ccc(CC)c(NC(=O)C(=O)Cc3nc4ccccc4nc3C)c2CC)c(CC)c1NC(=O)C(=O)Cc1nc2ccccc2nc1C
inactive: HOP-92 4.02 µM | ACHN 61.2 µM | K562 > 100 µM | Malme-3M 81.3 µM | RPMI-8226 > 100 µM | SF-268 33.3 µM | EKVX 45.9 µM | OVCAR-4 72.3 µM | SK-MEL-5 > 100 µM | UACC-257 > 100 µM | LOX IMVI > 100 µM | 786-0 > 100 µM | HL-60 > 100 µM | TK-10 > 100 µM | U-251 49.7 µM

O=C(O)c1cc(S(=O)(=O)N/N=C\c2c3ccccc3[n+]([O-])c3ccccc23)ccc1O
inactive: HOP-92 9.64 µM | ACHN 18.6 µM | K562 8.61 µM | Malme-3M 17.7 µM | RPMI-8226 7.48 µM | SF-268 11.7 µM | EKVX 44.4 µM | OVCAR-4 5.18 µM | SK-MEL-5 11.7 µM | HT-29 19.5 µM | UACC-257 26.1 µM | LOX IMVI 8 µM | 786-0 11.7 µM | HL-60 4.07 µM | TK-10 17.8 µM | U-251 23.2 µM

COc1ccc(C=C(c2ccc(OCc3ccccc3)cc2)c2ccc(OCc3ccccc3)cc2)cc1
inactive: ACHN > 100 µM | Malme-3M > 100 µM | RPMI-8226 > 100 µM | SF-268 > 100 µM | EKVX > 100 µM | OVCAR-4 > 100 µM | SK-MEL-5 > 100 µM | HT-29 > 100 µM | UACC-257 > 100 µM | SR > 100 µM | LOX IMVI > 100 µM | 786-0 > 100 µM | HL-60 > 100 µM | TK-10 > 100 µM | U-251 > 100 µM

CCCCCCCCCCn1cccc1/C=C/c1ccc(/C=C/c2cccn2CCCCCCCCCC)cc1
inactive: HOP-92 > 100 µM | ACHN > 100 µM | K562 > 100 µM | Malme-3M > 100 µM | RPMI-8226 > 100 µM | SF-268 > 100 µM | EKVX > 100 µM | OVCAR-4 > 100 µM | SK-MEL-5 > 100 µM | HT-29 > 100 µM | UACC-257 > 100 µM | LOX IMVI > 100 µM | 786-0 > 100 µM | HL-60 > 100 µM | TK-10 > 100 µM | U-251 > 100 µM

CC1=Nn2c(nnc2-c2ccc(N)cc2)NC(C)(C)C1
inactive: HOP-92 > 100 µM | ACHN > 100 µM | K562 > 100 µM | Malme-3M > 100 µM | RPMI-8226 > 100 µM | SF-268 > 100 µM | EKVX > 100 µM | OVCAR-4 > 100 µM | SK-MEL-5 > 100 µM | HT-29 > 100 µM | UACC-257 > 100 µM | LOX IMVI > 100 µM | 786-0 > 100 µM | HL-60 > 100 µM | TK-10 > 100 µM | U-251 > 100 µM

COC12OCCN(C)C1=CC(=O)C1=NNC(C)C12 (stereo not drawn)
inactive: HOP-92 > 100 µM | K562 > 100 µM | RPMI-8226 > 100 µM | EKVX > 100 µM | SK-MEL-5 > 100 µM | HT-29 > 100 µM | UACC-257 > 100 µM | LOX IMVI > 100 µM | 786-0 > 100 µM | HL-60 > 100 µM | TK-10 > 100 µM | U-251 > 100 µM

COC(=O)C1=C(C(=O)OC)C2(CCCCCC2=O)OC1=O (stereo not drawn)
inactive: HOP-92 > 100 µM | ACHN > 100 µM | K562 > 100 µM | Malme-3M > 100 µM | RPMI-8226 > 100 µM | SF-268 > 100 µM | EKVX > 100 µM | OVCAR-4 > 100 µM | SK-MEL-5 > 100 µM | HT-29 > 100 µM | UACC-257 > 100 µM | 786-0 > 100 µM | HL-60 > 100 µM | TK-10 > 100 µM | U-251 > 100 µM

CCOC(=O)C(Cc1ccccc1)NC(=O)c1nc[nH]c1/N=N/N(C)C (stereo not drawn)
inactive: ACHN > 100 µM | K562 > 100 µM | Malme-3M > 100 µM | RPMI-8226 > 100 µM | SF-268 > 100 µM | EKVX > 100 µM | OVCAR-4 > 100 µM | SK-MEL-5 > 100 µM | HT-29 > 100 µM | UACC-257 > 100 µM | SR > 100 µM | LOX IMVI > 100 µM | 786-0 > 100 µM | HL-60 > 100 µM | TK-10 > 10 µM | U-251 > 100 µM

Cc1c2ccncc2c(C)c2c1[nH]c1ccc(OC(C)(C)C)cc12
inactive: HOP-92 9.82 µM | K562 2.08 µM | Malme-3M 1.77 µM | RPMI-8226 2.08 µM | SF-268 5.12 µM | EKVX 11.1 µM | OVCAR-4 1.98 µM | SK-MEL-5 2.14 µM | HT-29 2.29 µM | UACC-257 1.97 µM | LOX IMVI 2.24 µM | 786-0 1.53 µM | HL-60 1.81 µM | TK-10 4.88 µM | U-251 2.82 µM

N#C/C(=C\c1cc(O)ccc1O)C(N)=O
inactive: HOP-92 34.4 µM | ACHN 26.8 µM | K562 27 µM | Malme-3M 74 µM | RPMI-8226 27.2 µM | SF-268 35.1 µM | EKVX 33.1 µM | OVCAR-4 54 µM | HT-29 38.8 µM | UACC-257 28.4 µM | 786-0 29.4 µM | HL-60 14 µM | TK-10 50.8 µM | U-251 98.4 µM
